# Experimental data as given in publication PMC5008228 (Journal of Parkinson's Disease, 2016).
# Values joined by “and” are separate entries in the source; they are usually repeats but may differ in a detail not shown here. Identical values can stand only once.
# Experiments:
# [1] = Nilotinib pharmacokinetics in plasma by mass spectrometry; format: in vivo; conditions: human, po, unbound Nilotinib; for AUC: Plasma AUC; for Cmax: Plasma Cmax
# PDD or DLB participants [2] = assay: Unified Parkinson's Disease Rating Scale; format: in vivo, human; conditions: for UPDRS-I-IV score / UPDRS-III score: individual participants; for Average decrease in UPDRS-III (motor): week 24 compared to baseline
# PDD or DLB participants [3] = assay: Mini Mental State Examination; format: in vivo, human; conditions: 300 ng (sub-heading as printed) oral daily; for MMSE score, AVG: group AVG (Screening AVG 17); for MMSE score: individual participants
compound,measurement,setting,value
Cc1cn(-c2cc(NC(=O)c3ccc(C)c(Nc4nccc(-c5cccnc5)n4)c3)cc(C(F)(F)F)c2)cn1 [Nilotinib],AUC,"[1]; 150 mg, 150 mg oral",157 ng·h/mL
same,Cmax,"[1]; 150 mg, 150 mg oral",55 nM
same,AUC,"[1]; 300 mg, 300 mg oral",232 ng·h/mL
same,Cmax,"[1]; 300 mg, 300 mg oral",86 nM
same,"UPDRS-III score, AVG","PDD or DLB participants [2]; 150 mg oral daily, Week-4, group AVG (Screening AVG 37.8)",29.4
same,UPDRS-I-IV score,"PDD or DLB participants [2]; 150 mg oral daily, Week-4",54 and 103 and 43 and 71 and 50
same,UPDRS-III score,"PDD or DLB participants [2]; 150 mg oral daily, Week-4",29 and 55 and 33 and 26
same,"UPDRS-III score, AVG","PDD or DLB participants [2]; 150 mg oral daily, Week-8, group AVG (Screening AVG 37.8)",35.6
same,"UPDRS-I-IV score, AVG","PDD or DLB participants [2]; 150 mg oral daily, Week-8, group AVG (Screening AVG 72.60)",69.00
same,UPDRS-I-IV score,"PDD or DLB participants [2]; 150 mg oral daily, Week-8",57 and 76 and 63 and 45
same,UPDRS-III score,"PDD or DLB participants [2]; 150 mg oral daily, Week-8",32 and 56 and 39 and 28 and 23
same,"UPDRS-III score, AVG","PDD or DLB participants [2]; 150 mg oral daily, Week-12, group AVG (Screening AVG 37.8)",36.6
same,"UPDRS-I-IV score, AVG","PDD or DLB participants [2]; 150 mg oral daily, Week-12, group AVG (Screening AVG 72.60)",69.40
same,UPDRS-I-IV score,"PDD or DLB participants [2]; 150 mg oral daily, Week-12",56 and 107 and 77 and 60 and 47
same,UPDRS-III score,"PDD or DLB participants [2]; 150 mg oral daily, Week-12",32 and 59 and 40 and 30 and 22
same,"UPDRS-III score, AVG","PDD or DLB participants [2]; 150 mg oral daily, Week-16, group AVG (Screening AVG 37.8)",38
same,"UPDRS-I-IV score, AVG","PDD or DLB participants [2]; 150 mg oral daily, Week-16, group AVG (Screening AVG 72.60)",70.20
same,UPDRS-I-IV score,"PDD or DLB participants [2]; 150 mg oral daily, Week-16",58 and 107 and 80 and 63 and 43
same,UPDRS-III score,"PDD or DLB participants [2]; 150 mg oral daily, Week-16",33 and 59 and 43 and 22
same,"UPDRS-III score, AVG","PDD or DLB participants [2]; 150 mg oral daily, Week-20, group AVG (Screening AVG 37.8)",36.2
same,"UPDRS-I-IV score, AVG","PDD or DLB participants [2]; 150 mg oral daily, Week-20, group AVG (Screening AVG 72.60)",67.80
same,UPDRS-I-IV score,"PDD or DLB participants [2]; 150 mg oral daily, Week-20",53 and 83 and 57 and 38
same,UPDRS-III score,"PDD or DLB participants [2]; 150 mg oral daily, Week-20",29 and 60 and 42 and 31 and 19
same,"UPDRS-III score, AVG","PDD or DLB participants [2]; 150 mg oral daily, Week-24, group AVG (Screening AVG 37.8)",34.4
same,"UPDRS-I-IV score, AVG","PDD or DLB participants [2]; 150 mg oral daily, Week-24, group AVG (Screening AVG 72.60)",65.60
same,UPDRS-I-IV score,"PDD or DLB participants [2]; 150 mg oral daily, Week-24",44 and 83 and 53 and 40
same,UPDRS-III score,"PDD or DLB participants [2]; 150 mg oral daily, Week-24",23 and 60 and 42 and 29 and 18
same,Average decrease in UPDRS I-IV,"PDD or DLB participants [2]; 150 mg oral daily, at 6 months",7 points
same,Average decrease in UPDRS-III (motor),PDD or DLB participants [2]; 150 mg oral daily,3.4 points
same,"UPDRS-III score, AVG","PDD or DLB participants [2]; 300 mg oral daily, Week-4, group AVG (Screening AVG 30.6)",28
same,"UPDRS-I-IV score, AVG","PDD or DLB participants [2]; 300 mg oral daily, Week-4, group AVG (Screening AVG 62.5)",60.8
same,UPDRS-I-IV score,"PDD or DLB participants [2]; 300 mg oral daily, Week-4",31 and 45 and 21 and 49 and 116 and 103
same,UPDRS-III score,"PDD or DLB participants [2]; 300 mg oral daily, Week-4",11 and 14 and 7 and 22 and 67 and 47
same,"UPDRS-III score, AVG","PDD or DLB participants [2]; 300 mg oral daily, Week-8, group AVG (Screening AVG 30.6)",28
same,"UPDRS-I-IV score, AVG","PDD or DLB participants [2]; 300 mg oral daily, Week-8, group AVG (Screening AVG 62.5)",60.3
same,UPDRS-I-IV score,"PDD or DLB participants [2]; 300 mg oral daily, Week-8",28 and 41 and 25 and 45 and 118 and 105
same,UPDRS-III score,"PDD or DLB participants [2]; 300 mg oral daily, Week-8",9 and 11 and 18 and 70 and 49
same,"UPDRS-III score, AVG","PDD or DLB participants [2]; 300 mg oral daily, Week-12, group AVG (Screening AVG 30.6)",26.6
same,"UPDRS-I-IV score, AVG","PDD or DLB participants [2]; 300 mg oral daily, Week-12, group AVG (Screening AVG 62.5)",57.3
same,UPDRS-I-IV score,"PDD or DLB participants [2]; 300 mg oral daily, Week-12",26 and 41 and 19 and 46 and 115 and 97
same,UPDRS-III score,"PDD or DLB participants [2]; 300 mg oral daily, Week-12",9 and 11 and 8 and 18 and 67 and 47
same,"UPDRS-III score, AVG","PDD or DLB participants [2]; 300 mg oral daily, Week-16, group AVG (Screening AVG 30.6)",27.8
same,"UPDRS-I-IV score, AVG","PDD or DLB participants [2]; 300 mg oral daily, Week-16, group AVG (Screening AVG 62.5)",58.8
same,UPDRS-I-IV score,"PDD or DLB participants [2]; 300 mg oral daily, Week-16",33 and 46 and 17 and 49 and 113 and 95
same,UPDRS-III score,"PDD or DLB participants [2]; 300 mg oral daily, Week-16",13 and 16 and 6 and 21 and 67 and 44
same,"UPDRS-III score, AVG","PDD or DLB participants [2]; 300 mg oral daily, Week-20, group AVG (Screening AVG 30.6)",26.8
same,"UPDRS-I-IV score, AVG","PDD or DLB participants [2]; 300 mg oral daily, Week-20, group AVG (Screening AVG 62.5)",55.3
same,UPDRS-I-IV score,"PDD or DLB participants [2]; 300 mg oral daily, Week-20",23 and 41 and 16 and 54 and 106 and 92
same,UPDRS-III score,"PDD or DLB participants [2]; 300 mg oral daily, Week-20",7 and 16 and 21 and 69 and 41
same,"UPDRS-III score, AVG","PDD or DLB participants [2]; 300 mg oral daily, Week-24, group AVG (Screening AVG 30.6)",27
same,"UPDRS-I-IV score, AVG","PDD or DLB participants [2]; 300 mg oral daily, Week-24, group AVG (Screening AVG 62.5)",51.6
same,UPDRS-I-IV score,"PDD or DLB participants [2]; 300 mg oral daily, Week-24",20 and 28 and 15 and 45 and 107 and 95
same,UPDRS-III score,"PDD or DLB participants [2]; 300 mg oral daily, Week-24",9 and 12 and 6 and 21 and 70 and 44
same,Average decrease in UPDRS-III (motor),PDD or DLB participants [2]; 300 mg oral daily,3.6 points
same,"MMSE score, AVG",PDD or DLB participants [3]; Week-4,20.3
same,MMSE score,PDD or DLB participants [3]; Week-4,27 and 28 and 24 and 5 and 10
same,"MMSE score, AVG",PDD or DLB participants [3]; Week-8,18.1
same,MMSE score,PDD or DLB participants [3]; Week-8,28 and 23 and 24 and 2 and 8
